This is an account of results in patent US9476053B2, “Methods and compositions for inhibition of immune responses and autoimmunity” (Dynavax Technologies Corporation, priority 2007, dated 2016).

One series concerns PDC. The series can be described thus: In vivo cell survival after escalating dose of Dexthametasone in 129 mice. Conditions: 0.5 mg-4 mg, 16 hours, spleen and blood. Details: species or system mouse. As to the method:
To investigate whether PDC are sensitive to glucorticoid induced death in vivo, 129 mice were treated with escalating dose of Dexthametasone (0.5 mg-4 mg) and after 16 hours spleen and blood was harvest. Cell survival was measured by flow cytometry. The number of viable cells was evaluated by flow cytometry by comparing to a fixed amount of microbeads that was added in equal amount in all samples prior to the measure on the flow cytometry.
Specific markers were used to identify specific subsets. Cells were identified to be PDC by the surface presence of B220, CD11c, and PDCA1 marker. Myeloid dendritic cells were identified as to be CD11c positive and B220 negative. B-cells were identified as B220 positive cells and CD11c negative. Monocytes were identified as CD11b positive. Cell viability using cells from spleen tissue under increasing Dexthametason dose was evaluated and results are shown in FIG. 32. Similar results were obtained using blood (data not shown). PDC were sensitive to glucorticoid induced death in vivo.

The next series deals with T1, TLR7 (Mus musculus, UniProt P58681).
T1 construct: The dispersed splenocytes were pelleted by centrifugation, then resuspended in fresh medium; endogenous in cells; host or cells: primary splenocytes of BALB/c mice
T1 sequence (P58681 27-1050): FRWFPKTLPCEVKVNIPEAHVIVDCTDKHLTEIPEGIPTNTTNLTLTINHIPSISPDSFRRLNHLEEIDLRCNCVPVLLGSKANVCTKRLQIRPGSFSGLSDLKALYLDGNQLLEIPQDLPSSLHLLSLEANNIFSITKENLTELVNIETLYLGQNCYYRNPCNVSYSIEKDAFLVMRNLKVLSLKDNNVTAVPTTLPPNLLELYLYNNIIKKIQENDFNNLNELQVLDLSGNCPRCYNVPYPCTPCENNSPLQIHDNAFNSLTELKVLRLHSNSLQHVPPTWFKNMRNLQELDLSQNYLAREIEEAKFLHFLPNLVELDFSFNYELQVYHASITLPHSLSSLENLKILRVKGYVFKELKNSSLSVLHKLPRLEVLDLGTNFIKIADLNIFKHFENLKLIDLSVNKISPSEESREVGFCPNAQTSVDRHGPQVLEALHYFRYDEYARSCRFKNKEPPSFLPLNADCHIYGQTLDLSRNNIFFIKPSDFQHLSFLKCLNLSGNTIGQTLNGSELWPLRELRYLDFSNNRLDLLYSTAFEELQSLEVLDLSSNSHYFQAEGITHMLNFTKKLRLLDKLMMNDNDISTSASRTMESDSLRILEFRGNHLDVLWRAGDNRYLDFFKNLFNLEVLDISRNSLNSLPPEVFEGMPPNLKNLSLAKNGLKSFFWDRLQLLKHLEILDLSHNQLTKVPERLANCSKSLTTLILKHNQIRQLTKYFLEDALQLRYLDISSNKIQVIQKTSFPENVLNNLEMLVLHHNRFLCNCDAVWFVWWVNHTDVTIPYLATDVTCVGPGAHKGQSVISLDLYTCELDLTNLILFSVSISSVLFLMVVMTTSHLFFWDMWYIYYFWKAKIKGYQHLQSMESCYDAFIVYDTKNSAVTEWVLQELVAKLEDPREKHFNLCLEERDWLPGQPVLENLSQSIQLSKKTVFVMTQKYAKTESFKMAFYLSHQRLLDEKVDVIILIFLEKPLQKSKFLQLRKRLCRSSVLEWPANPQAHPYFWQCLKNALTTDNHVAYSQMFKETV
The series can be described thus: Mouse splenocytes stimulated with R848 (TLR7 ligand), IL-6 by immunoassay. Format: cell-based. The procedure:
(§1) Modified and unmodified immunoregulatory polynucleotides (IRPs) (i.e., polynucleotides containing at least one modified or unmodified IRS) or control samples were assayed for immunoregulatory (IR) activity of innate immune responses on human and mouse cells.
(§2) For mouse cell assays, spleens from 6-12 week-old BALB/c mice spleen were harvested and mechanically dispersed by forcing the digested fragments through metal screens. The dispersed splenocytes were pelleted by centrifugation, then resuspended in fresh medium (RPMI 1640 with 10% fetal calf serum, plus 50 units/mL penicillin, 50 μg/mL streptomycin, 2 mM glutamine, and 0.05 mM β-mercaptoethanol). In a dose-dependent manner, the cells were then stimulated with […] of 1018 ISS (TLR9 ligand; 5′-[…]-3′ (SEQ ID NO:122)) or 1 μM of R848 (TLR7 ligand; a small molecule, an imidazoquinoline also called resiquimod) either alone or in the presence of the tested IRPs. At 48 hours, supernatants were collected and cytokine levels, IL-6, were measured using immunoassays. […]

The target in series [1] is T2, TLR9 (Mus musculus, UniProt Q9EQU3).
T2 construct: The dispersed splenocytes were pelleted by centrifugation, then resuspended in fresh medium; endogenous in cells; host or cells: primary splenocytes of BALB/c mice
T2 sequence (Q9EQU3 26-1032): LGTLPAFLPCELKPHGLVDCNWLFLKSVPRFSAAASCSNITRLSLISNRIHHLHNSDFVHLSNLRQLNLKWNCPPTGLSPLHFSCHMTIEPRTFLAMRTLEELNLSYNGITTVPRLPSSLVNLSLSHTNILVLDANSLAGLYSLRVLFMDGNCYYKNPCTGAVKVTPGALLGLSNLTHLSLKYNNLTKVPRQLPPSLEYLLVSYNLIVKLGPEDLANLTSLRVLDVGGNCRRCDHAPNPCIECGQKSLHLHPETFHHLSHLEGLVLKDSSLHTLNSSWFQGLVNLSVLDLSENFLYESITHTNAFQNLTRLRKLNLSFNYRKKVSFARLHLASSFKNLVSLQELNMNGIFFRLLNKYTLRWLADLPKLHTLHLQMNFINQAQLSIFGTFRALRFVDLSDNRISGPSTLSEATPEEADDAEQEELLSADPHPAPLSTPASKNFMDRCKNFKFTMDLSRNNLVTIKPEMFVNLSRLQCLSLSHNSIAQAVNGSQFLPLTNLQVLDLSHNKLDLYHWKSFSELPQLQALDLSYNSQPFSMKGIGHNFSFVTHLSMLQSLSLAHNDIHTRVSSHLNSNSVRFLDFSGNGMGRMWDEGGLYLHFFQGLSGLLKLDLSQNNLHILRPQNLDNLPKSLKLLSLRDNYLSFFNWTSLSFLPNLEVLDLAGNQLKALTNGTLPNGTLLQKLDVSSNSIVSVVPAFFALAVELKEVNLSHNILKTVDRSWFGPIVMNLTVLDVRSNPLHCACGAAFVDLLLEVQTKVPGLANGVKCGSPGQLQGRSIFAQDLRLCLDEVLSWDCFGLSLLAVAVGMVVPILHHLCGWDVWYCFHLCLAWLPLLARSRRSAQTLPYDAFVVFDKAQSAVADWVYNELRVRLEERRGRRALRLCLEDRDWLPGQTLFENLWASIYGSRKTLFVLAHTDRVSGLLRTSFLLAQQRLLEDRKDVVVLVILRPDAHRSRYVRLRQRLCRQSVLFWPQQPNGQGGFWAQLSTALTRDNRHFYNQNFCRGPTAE
The series can be described thus: Mouse splenocytes stimulated with 1018 ISS (TLR9 ligand), IL-6 by immunoassay. It counts as cell-based. Conditions: TLR9 stimulation (1018 ISS). The procedure: as §1, §2

The target in series [2] is T3, TLR9 (Homo sapiens, UniProt Q9NR96).
T3 sequence (Q9NR96 26-1032): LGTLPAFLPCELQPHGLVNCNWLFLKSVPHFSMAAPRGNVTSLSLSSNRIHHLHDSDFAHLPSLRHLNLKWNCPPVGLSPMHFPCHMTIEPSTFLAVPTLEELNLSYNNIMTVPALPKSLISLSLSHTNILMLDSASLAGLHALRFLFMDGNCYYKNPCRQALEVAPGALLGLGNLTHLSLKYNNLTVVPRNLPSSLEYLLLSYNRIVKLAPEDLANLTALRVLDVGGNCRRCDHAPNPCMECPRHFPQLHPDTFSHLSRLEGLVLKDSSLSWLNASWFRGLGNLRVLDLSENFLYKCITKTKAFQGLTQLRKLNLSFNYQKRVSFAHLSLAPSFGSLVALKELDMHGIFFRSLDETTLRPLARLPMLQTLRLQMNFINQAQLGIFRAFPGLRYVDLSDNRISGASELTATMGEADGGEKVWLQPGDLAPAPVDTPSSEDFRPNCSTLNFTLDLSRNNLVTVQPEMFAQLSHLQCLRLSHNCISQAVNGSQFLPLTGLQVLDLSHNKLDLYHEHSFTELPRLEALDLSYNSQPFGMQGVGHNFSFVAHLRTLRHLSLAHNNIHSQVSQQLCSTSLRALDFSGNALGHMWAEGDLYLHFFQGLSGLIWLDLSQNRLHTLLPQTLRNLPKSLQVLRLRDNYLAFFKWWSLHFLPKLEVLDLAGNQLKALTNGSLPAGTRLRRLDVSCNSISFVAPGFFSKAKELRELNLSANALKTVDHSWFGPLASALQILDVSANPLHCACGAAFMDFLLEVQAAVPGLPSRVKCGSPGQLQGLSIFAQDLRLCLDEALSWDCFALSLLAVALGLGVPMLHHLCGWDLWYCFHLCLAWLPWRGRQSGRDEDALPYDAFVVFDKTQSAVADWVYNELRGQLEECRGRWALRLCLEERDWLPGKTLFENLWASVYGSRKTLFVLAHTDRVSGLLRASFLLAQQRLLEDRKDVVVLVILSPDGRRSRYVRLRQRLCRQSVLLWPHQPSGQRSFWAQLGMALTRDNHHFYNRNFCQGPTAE
Description: Human PDC activated with CpG-C ISS C274, IFN-α production, IRS coupled to Ficoll 400. Format: cell-based. Details: innate immune responses on human plasmacytoid dendritic cells (PDCs); endogenous in cells; host or cells: human plasmacytoid dendritic cells (PDCs). Conditions: compared with IRS not coupled. The text has this:
To further investigate whether it is possible to increase IRS activity with respect to inhibition of IFN-α production by aggregating IRS molecule onto a higher order molecule, we have generated molecules that are composed by IRS oligonucleotides that are covalently associated to Ficoll 400, a neutral, highly branched, hydrophilic polymer of sucrose. The nature of this sugar allowed us to link between 10 to over 100 IRS oligos per Ficoll molecule.
The conjugation of oligonucleotides to ficoll as practiced currently consists of four reaction steps: (I) The commercially obtained ficoll is carboxymethylated by reaction of ficoll with chloroacetic acid in base. (II) After neutralization and dialysis, product is reacted with ethylene diamine in the presence of the 1-ethyl-3-[3-(dimethylaminopropyl]carbodiimide) EDC to give product (III). After dialysis Product (III) is reacted with (sulfosuccinimidal 4-[N-maleimidyl]-cyclohexane-1-carboxylate) SMCC to give the ficoll-maleimide product (IV). The thiol-reactive species (IV) is then reacted with the oligonucleotide thiol to give the final product (V), a multioligonucleotide conjugate of ficoll.
Thus, it is possible to increase IRS activity with respect to inhibition of IFN-α production by aggregating IRS molecule onto a higher order molecule.

As for `C[C@@H]1C[C@H]2[C@@H]3CCC4=CC(=O)C=C[C@]4(C)[C@@]3(F)[C@@H](O)C[C@]2(C)[C@@]1(O)C(=O)CO` [Dexthametasone], the “PDC sensitivity to glucorticoid induced death in vivo” value with PDC is on record as “sensitive”.

With “5′-UGCUCCUGGAGGGG UUGU-3′ (DNA TGCTCCTGGAGGGGTTGT; all LNA, backbone and methylation of C not given here) [SEQ ID NO:161]”, the “IL-6 levels compared to unmodified SEQ ID NO:123” value with TLR7 and in the series with TLR9 [1] was “failed to result in a significant decreased” each time.

For the molecule “IRS-Ficoll 400: 5′-TGCTCCTGGAGGGGTTGT-3′ (SEQ ID NO:123) coupled to Ficoll 400 (coupled to Ficoll 400, backbone chemistry not given here)”, the “activity for blocking IFN-α production by PDC” value in the series with TLR9 [2] was “much increased activity”.
